Laboratory results from ChEMBL document CHEMBL5113460, “Discovery of dual inhibitors of topoisomerase I and Cyclooxygenase-2 for colon cancer therapy” (Eur J Med Chem, 2022).
Activity calls are given as the source filed them. The rule behind the calls is not given here.

How the values were obtained:
[1] = molecular target: T1, DNA topoisomerase 1 (Homo sapiens) (UniProt P11387); experiment: Inhibition of topoisomerase 1 (unknown origin) assessed as relaxation of supercoiled plasmid pBR322 DNA at 10 uM incubated for 45 mins by ethidium bromide staining based agarose gel electrophoresis
T1 sequence (whole entry): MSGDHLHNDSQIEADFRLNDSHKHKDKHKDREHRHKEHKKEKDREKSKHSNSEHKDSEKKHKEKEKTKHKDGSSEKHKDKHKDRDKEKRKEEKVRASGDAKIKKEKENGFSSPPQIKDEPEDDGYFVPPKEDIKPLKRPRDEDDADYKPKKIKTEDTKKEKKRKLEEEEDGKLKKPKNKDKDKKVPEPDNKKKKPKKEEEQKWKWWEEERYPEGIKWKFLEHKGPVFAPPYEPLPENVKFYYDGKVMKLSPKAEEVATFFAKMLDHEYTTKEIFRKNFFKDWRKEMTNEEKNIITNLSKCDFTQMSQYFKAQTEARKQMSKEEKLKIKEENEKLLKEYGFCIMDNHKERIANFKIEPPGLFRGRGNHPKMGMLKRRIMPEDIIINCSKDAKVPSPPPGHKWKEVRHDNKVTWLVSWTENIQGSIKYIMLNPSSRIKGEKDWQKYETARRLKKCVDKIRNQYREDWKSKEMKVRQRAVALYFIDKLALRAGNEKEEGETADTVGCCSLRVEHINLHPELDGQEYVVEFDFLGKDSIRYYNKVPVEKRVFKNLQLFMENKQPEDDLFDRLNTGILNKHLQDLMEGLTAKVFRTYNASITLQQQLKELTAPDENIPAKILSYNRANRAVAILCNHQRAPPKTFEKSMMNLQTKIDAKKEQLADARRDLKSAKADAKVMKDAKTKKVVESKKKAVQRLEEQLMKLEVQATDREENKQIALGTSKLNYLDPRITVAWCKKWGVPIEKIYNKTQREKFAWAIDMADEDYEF

[2] = tested on: HT-29; experiment: Antitumor activity against human HT-29 cells assessed as inhibition of cell proliferation incubated for 72 hrs by MTT assay; format: functional, cell-based; settings: HT-29, 72 h
[3] = tested on: RKO; experiment: Antitumor activity against human RKO cells assessed as inhibition of cell proliferation incubated for 72 hrs by MTT assay; format: functional, cell-based
[4] = tested on: LoVo; experiment: Antitumor activity against human LoVo cells assessed as inhibition of cell proliferation incubated for 72 hrs by MTT assay; format: functional, cell-based
[5] = tested on: HCT-116; experiment: Antitumor activity against human HCT-116 cells assessed as inhibition of cell proliferation incubated for 72 hrs by MTT assay; format: functional, cell-based; settings: HCT-116, 72 h
[6] = tested on: SW480; experiment: Antitumor activity against human SW480 cells assessed as inhibition of cell proliferation incubated for 72 hrs by MTT assay; format: functional, cell-based; settings: SW480, 72 h
[7] = molecular target: Prostaglandin G/H synthase 2 (Homo sapiens) (UniProt P35354); experiment: Inhibition of COX-2 (unknown origin) at 3 uM
Chain of Prostaglandin G/H synthase 2 (Homo sapiens) (P35354 whole entry, looked up): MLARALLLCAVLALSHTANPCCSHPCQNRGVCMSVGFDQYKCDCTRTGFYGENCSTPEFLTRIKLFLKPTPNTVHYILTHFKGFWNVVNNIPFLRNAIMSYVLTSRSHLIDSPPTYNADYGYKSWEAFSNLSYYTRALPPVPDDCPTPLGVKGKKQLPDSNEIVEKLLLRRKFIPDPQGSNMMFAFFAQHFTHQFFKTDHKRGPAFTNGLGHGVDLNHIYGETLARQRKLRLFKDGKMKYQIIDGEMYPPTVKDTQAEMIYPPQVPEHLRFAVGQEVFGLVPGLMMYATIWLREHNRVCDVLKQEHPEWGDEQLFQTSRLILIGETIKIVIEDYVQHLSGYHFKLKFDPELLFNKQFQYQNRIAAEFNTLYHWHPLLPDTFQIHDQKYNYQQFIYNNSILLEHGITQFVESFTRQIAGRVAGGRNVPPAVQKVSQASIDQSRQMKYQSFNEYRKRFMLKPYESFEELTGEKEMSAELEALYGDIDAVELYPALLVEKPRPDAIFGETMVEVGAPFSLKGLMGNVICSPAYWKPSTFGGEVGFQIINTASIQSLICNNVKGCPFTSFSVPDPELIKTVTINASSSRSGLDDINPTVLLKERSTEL

[8] = molecular target: Prostaglandin G/H synthase 2 (Homo sapiens) (UniProt P35354); experiment: Inhibition of COX-2 (unknown origin) at 30 uM
[9] = molecular target: T1, DNA topoisomerase 1 (Homo sapiens); experiment: Inhibition of topoisomerase 1 (unknown origin) assessed as relaxation of supercoiled plasmid pBR322 DNA at 1 uM incubated for 45 mins by ethidium bromide staining based agarose gel electrophoresis
[10] = Water solubility of compound by HPLC analysis; format: physicochemical
[11] = tested on: HT-29; experiment: Antitumor activity against human HT-29 cells xenografted in BALB/c mouse assessed as inhibition of tumor growth at 30 mg/kg, ip bid and measured after 14 days by vernier caliper method; format: functional; settings: HT-29, 336 h, time 14 day, read-out: TGI
[12] = tested on: HT-29; experiment: Antitumor activity against human HT-29 cells xenografted in BALB/c mouse assessed as reduction of tumor weight at 30 mg/kg, ip bid and measured after 14 days; format: functional, organism-based; settings: time 14.0 day
[13] = tested on: HT-29; experiment: Antitumor activity against human HT-29 cells xenografted in BALB/c mouse assessed as inhibition of tumor microvessel density by measuring CD31-index at 30 mg/kg, ip bid for 14 days by immunohistochemical analysis; format: functional; settings: time 14 day

Structure (SMILES) | inhibition [1] [%] | IC50 [2] [µM] | IC50 [3] [µM] | IC50 [4] [µM] | IC50 [5] [µM] | IC50 [6] [µM] | inhibition [7] [%] | inhibition [8] [%] | inhibition [9] [%] | solubility [10] [µg/mL] | inhibition in vivo at 30 mg/kg [11] [%] | Activity [12] | Inhibition_index [13]
CCCN1CCN(c2ccc(NC(=O)c3ccccc3Nc3cccc(Cl)c3C)cc2)CC1 | 63.1 | 6.35 | 10.1 | 13.5 | 13.4 | 16.9 | 36.5 | 81 | – | – | – | – | –
CC(=O)N1CCN(c2ccc(NC(=O)c3ccccc3Nc3cccc(Cl)c3C)cc2)CC1 | 29 | > 30 | > 30 | > 30 | > 30 | > 30 | 37.6 | 60.3 | – | – | – | – | –
Cc1c(Cl)cccc1Nc1ccccc1C(=O)Nc1ccc(NCCO)cc1 | 40.9 | 12.9 | 29 | > 30 | 13.9 | > 30 | 69 | 100 | – | – | – | – | –
Cc1c(Cl)cccc1Nc1ccccc1C(=O)Nc1ccc(N2CCN(S(C)(=O)=O)CC2)cc1 | 19.7 | > 30 | > 30 | > 30 | > 30 | > 30 | 24.5 | 34.2 | 19.5 | – | – | – | –
Cc1c(Cl)cccc1Nc1ccccc1C(=O)Nc1ccc(N2CCN(C(C)C)CC2)cc1 | 54.6 | 2.97 | 10.8 | 8.29 | 12 | 10.3 | 30.1 | 83.7 | 37.5 | – | – | – | –
O=c1[nH]cc(F)c(=O)[nH]1 [FLUOROURACIL] | – | 12.2 | – | 8.35 | 7.77 | > 30 | – | – | – | – | – | – | –
COCC(=O)Oc1ccc(NC(=O)c2ccccc2Nc2cccc(Cl)c2C)cc1 | 16.6 | 18.7 | 14 | > 30 | 12.6 | > 30 | 25.2 | 47.7 | – | – | – | – | –
COCCOc1ccc(NC(=O)c2ccccc2Nc2cccc(Cl)c2C)cc1 | 29.3 | 7.48 | 15.4 | 14.7 | > 30 | > 30 | 31.7 | 36.5 | 25 | – | – | – | –
CCCCN1CCN(c2ccc(NC(=O)c3ccccc3Nc3cccc(Cl)c3C)cc2)CC1 | 53.2 | 9.83 | 15.2 | > 30 | 13.2 | 18.3 | 42.2 | 58.3 | 27.6 | – | – | – | –
Cc1c(Cl)cccc1Nc1ccccc1C(=O)Nc1ccc(C(N)=O)cc1 | 19.6 | 26.1 | > 30 | 22.8 | 17.5 | > 30 | – | 3.53 | – | – | – | – | –
Cc1c(Cl)cccc1Nc1ccccc1C(=O)Nc1ccc(N2CCN(c3ccccc3)CC2)cc1 | 13.9 | > 30 | > 30 | > 30 | > 30 | > 30 | 27.6 | 37.8 | 12.6 | – | – | – | –
Cc1c(Cl)cccc1Nc1ccccc1C(=O)Nc1ccc(OCCN)cc1 | 63.8 | 12 | 9.22 | 12.9 | 6.41 | 25.3 | 28.7 | 43.2 | 41.3 | – | – | – | –
Cc1c(Cl)cccc1Nc1ccccc1C(=O)Nc1ccc(OCCNC(=O)OC(C)(C)C)cc1 | 18.2 | 1.88 | 0.75 | 28.9 | > 30 | > 30 | – | 28 | – | < 1 | 37.9 | Active | 11.67
Cc1c(Cl)cccc1Nc1ccccc1C(=O)Nc1ccc(OCCO)cc1 | 46.2 | 6.83 | 16.7 | 24.7 | 9.65 | > 30 | 22.6 | 47.9 | – | – | – | – | –
Cc1c(Cl)cccc1Nc1ccccc1C(=O)Nc1ccc(N2CCOCC2)cc1 | 14.5 | 6.4 | > 30 | > 30 | > 30 | > 30 | 41.6 | 42.9 | – | – | – | – | –
Cc1c(Cl)cccc1Nc1ccccc1C(=O)Nc1ccc(N2CCN(C)CC2)cc1 | 67.8 | 2.09 | 6.61 | 5 | 7.58 | 11.3 | 54.4 | 100 | 25.4 | – | – | – | –
Cc1c(Cl)cccc1Nc1ccccc1C(=O)Nc1ccc(S(N)(=O)=O)cc1 | 24.4 | 28.8 | 13.7 | 13.3 | 7.7 | 14.7 | 42 | 71.3 | 19.8 | – | – | – | –
CCN1CCN(c2ccc(NC(=O)c3ccccc3Nc3cccc(Cl)c3C)cc2)CC1 | 71.9 | 2.99 | 10 | 9.51 | 11.5 | 15.8 | 37.1 | 100 | – | – | – | – | –
Cc1c(Cl)cccc1Nc1ccccc1C(=O)Nc1ccc(N2CCN(C(=O)OC(C)(C)C)CC2)cc1 | 20.4 | 11.9 | > 30 | > 30 | > 30 | > 30 | 18.9 | 41.9 | – | – | – | – | –
Cc1c(Cl)cccc1Nc1ccccc1C(=O)Nc1ccc(OC(=O)CO)cc1 | 45.1 | 13.6 | 14.1 | > 30 | 13.5 | > 30 | 24.9 | 97.9 | – | – | – | – | –
